We go through 14 compounds from patent US20050197350A1, “Novel quinoline, tetrahydroquinazoline, and pyrimidine derivatives and methods of treatment related to the use thereof” (TAISHO PHARMACEUTICAL CO., LTD., priority 2003, published 2005).

This experiment relates to MCH receptors. The experiment can be described thus: MCH receptor activity class (method not given).
Where [1] appears, read: class by percent of control at 10^−7 M or IC50.
[2] abbreviates: class by percent of control at 10^-7 M or IC50.
Setting [3] is: activity class 1-3: percent of control at 10^-7 M or IC50.

On to `Cc1cc(N(C)C)nc(N[C@H]2CC[C@@H](C(=O)NCc3cc(F)ccc3F)CC2)n1` [compound 2819, cis-N-(2,5-difluorobenzyl)-4-{[4-(dimethylamino)-6-methylpyrimidin-2-yl]amino}cyclohexanecarboxamide], for which, under setting [1], the class is reported as 1 (Class 1: The value of percent of control at 10^−7 M was less than 40% or the value of IC50 was less than 50 nM.).

For “N4,N4-dimethyl-N2-(cis-4-{[(2,4,5-trimethoxybenzyl)amino]-methyl}cyclohexyl)-5,6,7,8-tetrahydroquinazoline-2,4-diamine [compound 1416]”, under setting [2], the class was 1 (Class 1: The value of percent of control at 10^−7 M was less than 40% or the value of IC50 was less than 50 nM.).

Regarding `CN(C)c1nc(N[C@H]2CC[C@@H](NC(=O)Nc3cc(C(F)(F)F)cc(C(F)(F)F)c3)CC2)nc2c1CCCC2` [compound 1811], the class under setting [2] is recorded as 3 (Class 3 The value of percent of control at 10^−7 M was more than 60% or the value of IC50 was more than 200 nM.).

Take `CN(C)c1cc(N[C@H]2CC[C@@H](NC(=O)Oc3cccc(C(F)(F)F)c3)CC2)nc2ccccc12` [compound 1542]: the class under setting [3] is reported as 3 (Class 3 The value of percent of control at 10^−7 M was more than 60% or the value of IC50 was more than 200 nM.).

Take `CCc1cccc(C(C)C)c1NC(=S)N[C@H]1CC[C@@H](Nc2nccc(N(C)C)n2)CC1` [compound 2262]: the class under setting [2] is reported as 3 (Class 3 The value of percent of control at 10^−7 M was more than 60% or the value of IC50 was more than 200 nM.).

On to `Cc1ncccc1C(=O)N[C@H]1CC[C@@H](Nc2nc(C)c(C)c(N(C)C)n2)CC1` [compound 2831], for which the class under setting [1] is recorded as 3 (Class 3 The value of percent of control at 10^−7 M was more than 60% or the value of IC50 was more than 200 nM.).

As to `CN(C)c1cc(N[C@H]2CC[C@@H](NC(=O)c3cc([N+](=O)[O-])cn3C)CC2)nc2ccccc12` [compound 768, N-(cis-4-{[4-(dimethylamino)quinolin-2-yl]amino}cyclohexyl)-1-methyl-4-nitro-1H-pyrrole-2-carboxamide], the class under setting [2] is on record as 1 (Class 1: The value of percent of control at 10^−7 M was less than 40% or the value of IC50 was less than 50 nM.).

For `CN(C)c1nc(N[C@H]2CC[C@@H](NC(=O)Nc3ccc(Br)cc3Br)CC2)nc2c1CCCC2` [compound 1709], the class under setting [3] is listed as 2 (Class 2: The value of percent of control at 10^−7 M was from 40% to 60% or the value of IC′50 was from 50 nM to 200 nM.).

With `CN(C)c1ccnc(N[C@H]2CC[C@@H](CNC(=O)OCc3ccc([N+](=O)[O-])cc3)CC2)n1` [compound 401], the class under setting [2] is reported as 3 (Class 3 The value of percent of control at 10^−7 M was more than 60% or the value of IC50 was more than 200 nM.).

Turning to `CCOc1cc(CNC[C@H]2CC[C@@H](Nc3nc4c(c(N(C)C)n3)CCCC4)CC2)ccc1O` [compound 1401], the class under setting [2] was 2 (Class 2: The value of percent of control at 10^−7 M was from 40% to 60% or the value of IC′50 was from 50 nM to 200 nM.).

Regarding `CN(C)c1cc(N[C@H]2CC[C@@H](CNCc3c[nH]nc3-c3ccc(C(F)(F)F)cc3)CC2)nc2ccccc12` [compound 1135], the class (activity class per percent of control at 10^-7 M or IC50) was 3 (Class 3 The value of percent of control at 10^−7 M was more than 60% or the value of IC50 was more than 200 nM.).

`CN(C)c1cc(N[C@H]2CC[C@@H](CNC(=O)c3ccc(Cl)c(Cl)c3)CC2)nc2ccccc12` [compound 158]: the class (MCH receptor, class by percent of control at 10^-7 M or IC50) was 3 (Class 3 The value of percent of control at 10^−7 M was more than 60% or the value of IC50 was more than 200 nM.).

Consider `CCc1cccc(C)c1NC(=O)N[C@H]1CC[C@@H](Nc2nccc(N(C)C)n2)CC1` [compound 2182], for which the class under setting [2] is 3 (Class 3 The value of percent of control at 10^−7 M was more than 60% or the value of IC50 was more than 200 nM.).

As to `CCc1cccc(C(C)C)c1NC(=O)N[C@H]1CC[C@@H](Nc2nc3c(c(N(C)C)n2)CCCC3)CC1` [compound 1676], the class under setting [3] is listed as 2 (Class 2: The value of percent of control at 10^−7 M was from 40% to 60% or the value of IC′50 was from 50 nM to 200 nM.).
